Experimental data published in US11690810B2, “Combination treatment of bacterial infection” (The Chinese University of Hong Kong, priority 2018, dated 2023).

How the values were obtained:
Experiment in all cases: MIC and checkerboard (FIC) assay
CA MRSA W48 = test system: CA MRSA W48
[1] = test system: clinical fusidic acid resistant MRSA strain 73621; assay type: cell-based, Staphylococcus aureus; details: for FIC / MIC combine: 73621
CA MRSA W46 = test system: CA MRSA W46
CA MRSA W103 = test system: CA MRSA W103
HA MRSA W233 = test system: HA MRSA W233
HA MRSA W234 = test system: HA MRSA W234
CA-MRSA strain ST30 = assay type: cell-based, Staphylococcus aureus
[2] = test system: clinical fusidic acid resistant MRSA strain 96591; assay type: cell-based, Staphylococcus aureus; details: for FIC / MIC combine: 96591
HA MRSA W238 = test system: HA MRSA W238
CA MRSA W113 = test system: CA MRSA W113
CA MRSA W44 = test system: CA MRSA W44
HA MRSA W231 = test system: HA MRSA W231
HA MRSA W232 = test system: HA MRSA W232
[3] = test system: S. aureus SA-APH2″-AAC6′ (APH2), resistant to gentamicin
CA MRSA W106 = test system: CA MRSA W106
CA MRSA W114 = test system: CA MRSA W114
[4] = test system: clinical fusidic acid resistant MRSA strain 82356; assay type: cell-based, Staphylococcus aureus; details: for FIC / MIC combine: 82356
HA MRSA W235 = test system: HA MRSA W235
CA MRSA W101 = test system: CA MRSA W101
[5] = Staphylococcus aureus, MRSA, read-out: MIC alone
[6] = APH2″-AAC6′, ECG with WQD-169 (Kuraridin)

O=C(O[C@@H]1Cc2c(O)cc(O)cc2O[C@@H]1c1ccc(O)c(O)c1)c1cc(O)c(O)c(O)c1 [ECG, epicatechin gallate]
MIC (CA MRSA W48; [5]): 512 µg/mL | FIC (CA MRSA W48; W48, ECG with Kur): 0.002 | MIC combine (CA MRSA W48; W48, ECG with Kur): 1 µg/mL | FIC (CA MRSA W48; W48, ECG+Kur+Van): 0.002 | MIC combine (CA MRSA W48; W48, ECG+Kur+Van): 1 µg/mL | MIC alone (CA MRSA W48; W48, Table 5): 512 µg/mL | FIC ([1]; ECG+Kur+Fus): 0.004 | MIC combine ([1]; ECG+Kur+Fus): 0.25 µg/mL | FIC ([1]; ECG+Kur, no Fus): 0.003 | MIC combine ([1]; ECG+Kur, no Fus): 16 µg/mL | MIC [1, 5]: 512 µg/mL | MIC (CA MRSA W46; [5]): 512 µg/mL | FIC (CA MRSA W46; W46, ECG with Kur): 0.015 | MIC combine (CA MRSA W46; W46, ECG with Kur): 8 µg/mL | FIC (CA MRSA W46; W46, ECG+Kur+Van): 0.002 | MIC combine (CA MRSA W46; W46, ECG+Kur+Van): 1 µg/mL | MIC alone (CA MRSA W46; W46, Table 5): 512 µg/mL | MIC (CA MRSA W103; [5]): 512 µg/mL | FIC (CA MRSA W103; W103, ECG with Kur): 0.002 | MIC combine (CA MRSA W103; W103, ECG with Kur): 1 µg/mL | MIC (HA MRSA W233; [5]): 512 µg/mL | MIC alone (HA MRSA W233; W233 (gentamicin resistant)): 512 µg/mL | FIC (HA MRSA W233; W233, ECG with Kur): 0.004 | MIC combine (HA MRSA W233; W233, ECG with Kur): 2 µg/mL | FIC (HA MRSA W233; W233, ECG+Kur+Gen): 0.0005 | MIC combine (HA MRSA W233; W233, ECG+Kur+Gen): 0.25 µg/mL | FIC (HA MRSA W233; W233, ECG+Kur+Van): 0.03 | MIC combine (HA MRSA W233; W233, ECG+Kur+Van): 8 µg/mL | FIC (HA MRSA W233; W233, ECG+Kur, no Gen): 0.03 | MIC combine (HA MRSA W233; W233, ECG+Kur, no Gen): 16 µg/mL | MIC alone (HA MRSA W233; W233, Table 5): 512 µg/mL | MIC (HA MRSA W234; [5]): 512 µg/mL | FIC (HA MRSA W234; W234, ECG with Kur): 0.002 | MIC combine (HA MRSA W234; W234, ECG with Kur): 1 µg/mL | FIC (CA-MRSA strain ST30; ST30, ECG with Kur): 0.0004 | MIC combine (CA-MRSA strain ST30; ST30, ECG with Kur): 0.25 µg/mL | FIC (CA-MRSA strain ST30; ST30, ECG+Kur+Van): 0.0004 | MIC combine (CA-MRSA strain ST30; ST30, ECG+Kur+Van): 0.25 µg/mL | MIC alone (CA-MRSA strain ST30; ST30, Table 5): 512 µg/mL | MIC (CA-MRSA strain ST30; [5]): 512 µg/mL | FIC ([2]; ECG+Kur+Fus): 0.002 | MIC combine ([2]; ECG+Kur+Fus): 0.25 µg/mL | FIC ([2]; ECG+Kur, no Fus): 0.003 | MIC combine ([2]; ECG+Kur, no Fus): 16 µg/mL | MIC [2, 5]: 512 µg/mL | MIC (HA MRSA W238; [5]): 512 µg/mL | MIC alone (HA MRSA W238; W238 (gentamicin resistant)): 512 µg/mL | FIC (HA MRSA W238; W238, ECG with Kur): 0.002 | MIC combine (HA MRSA W238; W238, ECG with Kur): 1 µg/mL | FIC (HA MRSA W238; W238, ECG+Kur+Gen): 0.0004 | MIC combine (HA MRSA W238; W238, ECG+Kur+Gen): 0.25 µg/mL | FIC (HA MRSA W238; W238, ECG+Kur+Van): 0.0004 | MIC combine (HA MRSA W238; W238, ECG+Kur+Van): 0.25 µg/mL | FIC (HA MRSA W238; W238, ECG+Kur, no Gen): 0.0004 | MIC combine (HA MRSA W238; W238, ECG+Kur, no Gen): 0.5 µg/mL | MIC alone (HA MRSA W238; W238, Table 5): 512 µg/mL | MIC (CA MRSA W113; [5]): 512 µg/mL | FIC (CA MRSA W113; W113, ECG with Kur): 0.002 | MIC combine (CA MRSA W113; W113, ECG with Kur): 1 µg/mL | MIC (CA MRSA W44; [5]): 512 µg/mL | FIC (CA MRSA W44; W44, ECG with Kur): 0.004 | MIC combine (CA MRSA W44; W44, ECG with Kur): 2 µg/mL | FIC (CA MRSA W44; W44, ECG+Kur+Van): 0.0004 | MIC combine (CA MRSA W44; W44, ECG+Kur+Van): 0.25 µg/mL | MIC alone (CA MRSA W44; W44, Table 5): 512 µg/mL | MIC (HA MRSA W231; [5]): 512 µg/mL | MIC alone (HA MRSA W231; W231 (gentamicin resistant)): 512 µg/mL | FIC (HA MRSA W231; W231, ECG with Kur): 0.016 | MIC combine (HA MRSA W231; W231, ECG with Kur): 8 µg/mL | FIC (HA MRSA W231; W231, ECG+Kur+Gen): 0.0004 | MIC combine (HA MRSA W231; W231, ECG+Kur+Gen): 0.25 µg/mL | FIC (HA MRSA W231; W231, ECG+Kur, no Gen): 0.008 | MIC combine (HA MRSA W231; W231, ECG+Kur, no Gen): 4 µg/mL | MIC alone (HA MRSA W231; W231, Table 5): 512 µg/mL | MIC (HA MRSA W232; [5]): 512 µg/mL | FIC (HA MRSA W232; W232, ECG with Kur): 0.008 | MIC combine (HA MRSA W232; W232, ECG with Kur): 4 µg/mL | FIC (HA MRSA W232; W232, ECG+Kur+Van): 0.03 | MIC combine (HA MRSA W232; W232, ECG+Kur+Van): 8 µg/mL | MIC alone (HA MRSA W232; W232, Table 5): 512 µg/mL | MIC alone ([3]; APH2 (gentamicin resistant)): 512 µg/mL | FIC ([3]; APH2, ECG+Kur+Gen): 0.0005 | MIC combine ([3]; APH2, ECG+Kur+Gen): 0.25 µg/mL | FIC ([3]; APH2, ECG+Kur, no Gen): 0.0009 | MIC combine ([3]; APH2, ECG+Kur, no Gen): 0.5 µg/mL | FIC ([3]; APH2, Kuraridin with ECG): 0.0009 | MIC combine ([3]; APH2, Kuraridin with ECG): 0.5 µg/mL | FIC ([3]; APH2″-AAC6′, ECG with WQD-164): 0.001 | MIC combine ([3]; APH2″-AAC6′, ECG with WQD-164): 1 µg/mL | FIC ([3]; APH2″-AAC6′, ECG with WQD-165): 0.0009 | MIC combine ([3]; APH2″-AAC6′, ECG with WQD-165): 0.5 µg/mL | FIC [3, 6]: 0.007 | MIC combine [3, 6]: 4 µg/mL | FIC ([3]; APH2″-AAC6′, ECG with WQD-175): 0.0009 | MIC combine ([3]; APH2″-AAC6′, ECG with WQD-175): 0.5 µg/mL | MIC90 ([3]; Staphylococcus aureus): 8 µg/mL | MIC99 ([3]; Staphylococcus aureus, read-out: MIC 99.9): > 512 µg/mL | MIC ([3]; Staphylococcus aureus, read-out: MIC alone): 512 µg/mL | MIC alone ([3]; Strain APH2″-AAC6′, Table 9): 512 µg/mL | MIC (CA MRSA W106; [5]): 512 µg/mL | FIC (CA MRSA W106; W106, ECG with Kur): 0.002 | MIC combine (CA MRSA W106; W106, ECG with Kur): 1 µg/mL | MIC (CA MRSA W114; [5]): 512 µg/mL | FIC (CA MRSA W114; W114, ECG with Kur): 0.002 | MIC combine (CA MRSA W114; W114, ECG with Kur): 1 µg/mL | FIC ([4]; ECG+Kur+Fus): 0.008 | MIC combine ([4]; ECG+Kur+Fus): 0.25 µg/mL | FIC ([4]; ECG+Kur, no Fus): 0.016 | MIC combine ([4]; ECG+Kur, no Fus): 8 µg/mL | MIC [4, 5]: 512 µg/mL | MIC (HA MRSA W235; [5]): 512 µg/mL | FIC (HA MRSA W235; W235, ECG with Kur): 0.002 | MIC combine (HA MRSA W235; W235, ECG with Kur): 1 µg/mL | MIC (CA MRSA W101; [5]): 512 µg/mL | FIC (CA MRSA W101; W101, ECG with Kur): 0.002 | MIC combine (CA MRSA W101; W101, ECG with Kur): 1 µg/mL
